Patent publication US11559510B2, “Isoflavonoid composition with improved pharmacokinetics” (NOXOPHARM LIMITED, priority 2016, dated 2023)

What was measured:
[1] = Extrapolation of rat rectal plasma levels to humans on a body surface area basis; conditions: extrapolated from rat rectal data
Method: In this study, idronoxil was given to rats at a dose of 10 mg/kg body weight, yielding a plasma concentration of about 35 to 40 ng/mL up to 8 hours from a single rectal administration. This dosage equates (on a body surface area basis) to a dose in humans of about 2 mg/kg BW. Thus, a blood level range of 20-400 ng/mL could be achieved in humans with a dosage range of 1-20 mg/kg BW, and the preferred range of 80-160 ng/mL with a dosage range of 4-8 mg/kg BW.

[2] = system: cancer cells; conditions: cited from earlier work
[3] = cited from earlier work

SMILES: Oc1ccc(C2=Cc3ccc(O)cc3OC2)cc1 [Idronoxil, 2H-1-Benzopyran-7-0,1,3-(4-hydroxyphenyl)]
- blood level range that could be achieved in humans ([1]; dosage range of 1-20 mg/kg BW): 0.02 to 0.4 µg/mL
- blood level range that could be achieved in humans ([1]; dosage range of 4-8 mg/kg BW): 0.08 to 0.16 µg/mL
- concentration where it kills about 10% of the cancer cells (sensitising use) ([2]; cancer cells in cell culture): 50 to 300 ng/mL
- concentration that kills 50% of cancer cells in cell culture (IC50) ([2]; depending largely on the tumour type): 0.2 to 1.2 mg/L
- direct cytotoxic or sensitising effect when drug added in a pulsatile manner ([2]; left in cancer cell culture for 2-3 hours and then removed): largely ineffective
- plasma elimination half-life ([3]; bolus IV administration): short
- time after administration at which free idronoxil is detected in plasma ([3]; given orally, most patients): ≤ 30 min
- absolute oral bioavailability ([3]; given orally): low
- blood levels readily attained ([3]; humans treated both orally and intravenously): 50 µM
